The results in this text go back to patent US20070293553A1, “Diphenylurea Derivatives Useful As Potassium Channel Activators” (priority 2004, published 2007).

Each structure is given as a SMILES string.

For orientation: melting point means the temperature, or range, at which the solid turns liquid.

As for `O=C(Nc1cccc(C(F)(F)F)c1)Nc1ccc(-c2ccc(Cl)cc2)cc1-c1nnn[nH]1` [Compound 3-2, N-(3-Trifluoromethyl-phenyl)-N′-[4′-chloro-3-(1H-tetrazol-5-yl)-biphenyl-4-yl]-urea], the melting point was 253 to 254 °C. The result for `O=C(Nc1ccc(Cl)c(C(F)(F)F)c1)Nc1ccc(-c2ccc(Cl)cc2)cc1-c1nnn[nH]1` [Compound 3-3, N-(4-Chloro-3-trifluoromethyl-phenyl)-N′-[4′-chloro-3-(1H-tetrazol-5-yl)-biphenyl-4-yl]-urea] reads 242 to 243 °C; that for `O=C(Nc1cc(Cl)cc(Cl)c1)Nc1ccc(-c2ccc(Cl)cc2)cc1-c1nnn[nH]1` [Compound 3-4, N-(3,5-Dichloro-phenyl)-N′-[4′-chloro-3-(1H-tetrazol-5-yl)-biphenyl-4-yl]-urea], 231 to 234 °C. For the compound `O=C(Nc1cc(F)cc(F)c1)Nc1ccc(-c2ccc(Cl)cc2)cc1-c1nnn[nH]1` [Compound 3-5, N-(3,5-Difluoro-phenyl)-N′-[4′-chloro-3-(1H-tetrazol-5-yl)-biphenyl-4-yl]-urea], the melting point was 250 to 251 °C. The result for `O=C(Nc1cc(Cl)cc(Cl)c1)Nc1ccc(-c2ccc(C(F)(F)F)cc2)cc1-c1nnn[nH]1` [Compound 3-6, N-(3,5-Dichloro-phenyl)-N′-[3-(1H-tetrazol-5-yl)-4′-trifluoromethyl-biphenyl-4-yl]-urea] reads 226 to 230 °C; that for `O=C(Nc1cc(F)cc(F)c1)Nc1ccc(-c2ccc(C(F)(F)F)cc2)cc1-c1nnn[nH]1` [Compound 3-7, N-(3,5-Difluoro-phenyl)-N′-[3-(1H-tetrazol-5-yl)-4′-trifluoromethyl-biphenyl-4-yl]-urea], 245 to 247 °C. The result for `O=C(Nc1cc(-c2ccc(F)cc2)cc(-c2nnn[nH]2)c1)Nc1cccc(C(F)(F)F)c1` [Compound 3-8, N-(3-Trifluoromethyl-phenyl)-N′-[4′-fluoro-3-(1H-tetrazol-5-yl)-biphenyl-5-yl]-urea] reads 256 to 258 °C. The result for `O=C(Nc1ccc(Cl)c(C(F)(F)F)c1)Nc1ccc(-c2ccc(F)cc2)cc1-c1nnn[nH]1` [Compound 3-9, N-(4-Chloro-3-trifluoromethyl-phenyl)-N′-[4′-fluoro-3-(1H-tetrazol-5-yl)-biphenyl-4-yl]-urea] reads 247 to 249 °C; that for `O=C(Nc1cc(Cl)cc(Cl)c1)Nc1ccc(-c2ccc(F)cc2)cc1-c1nnn[nH]1` [Compound 3-10, N-(3,5-Dichloro-phenyl)-N′-[4′-fluoro-3-(1H-tetrazol-5-yl)-biphenyl-4-yl]-urea], 241 to 243 °C; that for `O=C(Nc1cc(F)cc(F)c1)Nc1ccc(-c2ccc(F)cc2)c(-c2nnn[nH]2)c1` [Compound 3-11, N-(3,5-Difluoro-phenyl)-N′-[4′-fluoro-2-(1H-tetrazol-5-yl)-biphenyl-4-yl]-urea], 255 to 256 °C. `O=C(Nc1ccc(F)c(C(F)(F)F)c1)Nc1ccc(-c2ccc(C(F)(F)F)cc2)cc1-c1nnn[nH]1` [Compound 3-12, N-(4-Fluoro-3-trifluoromethyl-phenyl)-N′-[3-(1H-tetrazol-5-yl)-4′-trifluoromethyl-biphenyl-4-yl]-urea]: the melting point lay in the range of 247 to 249 °C. The same measure for `O=C(Nc1cc(C(F)(F)F)cc(C(F)(F)F)c1)Nc1ccc(-c2ccc(C(F)(F)F)cc2)cc1-c1nnn[nH]1` [Compound 3-13, N-(3,5-Bis-trifluoromethyl-phenyl)-N′-[3-(1H-tetrazol-5-yl)-4′-trifluoromethyl-biphenyl-4-yl]-urea]: 246 to 248 °C; for `O=C(Nc1cc(C(F)(F)F)cc(C(F)(F)F)c1)Nc1ccc(-c2ccc(Cl)cc2)cc1-c1nnn[nH]1` [Compound 3-14, N-(3,5-Bis-trifluoromethyl-phenyl)-N′-[4′-chloro-3-(1H-tetrazol-5-yl)-biphenyl-4-yl]-urea]: 230 to 233 °C; for `O=C(Nc1ccc(F)c(C(F)(F)F)c1)Nc1ccc(-c2ccc(Cl)cc2)cc1-c1nnn[nH]1` [Compound 3-15, N-(4-Fluoro-3-trifluoromethyl-phenyl)-N′-[4′-chloro-3-(1H-tetrazol-5-yl)-biphenyl-4-yl]-urea]: 243 to 245 °C.

For the compound `O=C(Nc1cc(C(F)(F)F)cc(C(F)(F)F)c1)Nc1ccc(-c2ccc(F)cc2)cc1-c1nnn[nH]1` [Compound 3-16, N-(3,5-Bis-trifluoromethyl-phenyl)-N′-[4′-fluoro-3-(1H-tetrazol-5-yl)-biphenyl-4-yl]-urea], the melting point lay in the range of 251 to 253 °C. The same measure for `O=C(Nc1ccc(F)c(C(F)(F)F)c1)Nc1ccc(-c2ccc(F)cc2)cc1-c1nnn[nH]1` [Compound 3-17, N-(4-Fluoro-3-trifluoromethyl-phenyl)-N′-[4′-fluoro-3-(1H-tetrazol-5-yl)-biphenyl-4-yl]-urea]: 253 to 254 °C; for `O=C(Nc1ccc(-c2ccc(C(F)(F)F)cc2)cc1-c1nnn[nH]1)Nc1ccccc1C(F)(F)F` [Compound 3-18, N-(2-Trifluoromethyl-phenyl)-N′-[3-(1H-tetrazol-5-yl)-4′-trifluoromethyl-biphenyl-4-yl]-urea]: 240 to 243 °C. The compound `O=C(Nc1ccc(-c2ccc(F)cc2)cc1-c1nnn[nH]1)Nc1ccccc1C(F)(F)F` [Compound 3-19, N-(2-Trifluoromethyl-phenyl)-N′-[4′-fluoro-3-(1H-tetrazol-5-yl)-biphenyl-4-yl]-urea] gave a melting point of 256 to 258 °C.

The compound `O=C(Nc1ccccc1Br)Nc1ccc(-c2ccc(C(F)(F)F)cc2)cc1-c1nnn[nH]1` [Compound 3-20, N-(2-Bromo-phenyl)-N′-[3-(1H-tetrazol-5-yl)-4′-trifluoromethyl-biphenyl-4-yl]-urea] registered a melting point of 242 to 243 °C.

Compound `O=C(Nc1ccc(-c2ccc(Cl)cc2)cc1-c1nnn[nH]1)Nc1ccccc1C(F)(F)F` [Compound 3-21, N-(2-Trifluoromethyl-phenyl)-N′-[4′-chloro-3-(1H-tetrazol-5-yl)-biphenyl-4-yl]-urea] gave a melting point of 290 to 292 °C. The result for `O=C(Nc1ccccc1Br)Nc1ccc(-c2ccc(Cl)cc2)cc1-c1nnn[nH]1` [Compound 3-22, N-(2-Bromo-phenyl)-N′-[4′-chloro-3-(1H-tetrazol-5-yl)-biphenyl-4-yl]-urea] reads 255 to 256 °C; that for `O=C(Nc1ccccc1Br)Nc1ccc(-c2ccc(F)cc2)cc1-c1nnn[nH]1` [Compound 3-23, N-(2-Bromo-phenyl)-N′-[4′-fluoro-3-(1H-tetrazol-5-yl)-biphenyl-4-yl]-urea], 256 to 258 °C. The same measure for `O=C(Nc1ccccc1F)Nc1ccc(-c2ccc(C(F)(F)F)cc2)cc1-c1nnn[nH]1` [Compound 3-24, N-(2-Fluoro-phenyl)-N′-[3-(1H-tetrazol-5-yl)-4′-trifluoromethyl-biphenyl-4-yl]-urea]: 251 to 252 °C; for `O=C(Nc1ccccc1F)Nc1ccc(-c2ccc(Cl)cc2)cc1-c1nnn[nH]1` [Compound 3-25, N-(2-Fluoro-phenyl)-N′-[4′-chloro-3-(1H-tetrazol-5-yl)-biphenyl-4-yl]-urea]: 257 to 259 °C. The result for `O=C(Nc1ccccc1F)Nc1ccc(-c2ccc(F)cc2)cc1-c1nnn[nH]1` [Compound 3-26, N-(2-Fluoro-phenyl)-N′-[4′-fluoro-3-(1H-tetrazol-5-yl)-biphenyl-4-yl]-urea] reads 263 to 264 °C; that for `Cc1ccc(-c2ccc(NC(=O)Nc3ccccc3F)c(-c3nnn[nH]3)c2)cc1` [Compound 3-27, N-(2-Fluoro-phenyl)-N′-[4′-methyl-3-(1H-tetrazol-5-yl)-biphenyl-4-yl]-urea], 260 to 262 °C; that for `Cc1ccc(-c2ccc(NC(=O)Nc3ccccc3Cl)c(-c3nnn[nH]3)c2)cc1` [Compound 3-28, N-(2-Chloro-phenyl)-N′-[4′-methyl-3-(1H-tetrazol-5-yl)-biphenyl-4-yl]-urea], 261 to 263 °C. On to `Cc1ccc(-c2ccc(NC(=O)Nc3ccccc3Br)c(-c3nnn[nH]3)c2)cc1` [Compound 3-29, N-(2-Bromo-phenyl)-N′-[4′-methyl-3-(1H-tetrazol-5-yl)-biphenyl-4-yl]-urea], for which the melting point lay within 255 to 257 °C. The result for `Cc1ccc(-c2ccc(NC(=O)Nc3ccccc3C(F)(F)F)c(-c3nnn[nH]3)c2)cc1` [Compound 3-30, N-(2-Trifluoromethyl-phenyl)-N′-[4′-methyl-3-(1H-tetrazol-5-yl)-biphenyl-4-yl]-urea] reads 259 to 261 °C. `O=C(Nc1ccccc1Cl)Nc1ccc(-c2ccc(C(F)(F)F)cc2)cc1-c1nnn[nH]1` [Compound 3-31, N-(2-Chloro-phenyl)-N′-[3-(1H-tetrazol-5-yl)-4′-trifluoromethyl-biphenyl-4-yl]-urea]: the melting point was in the range of 254 to 255 °C. The result for `O=C(Nc1ccccc1Cl)Nc1ccc(-c2ccc(Cl)cc2)cc1-c1nnn[nH]1` [Compound 3-32, N-(2-Chloro-phenyl)-N′-[4′-chloro-3-(1H-tetrazol-5-yl)-biphenyl-4-yl]-urea] reads 255 to 257 °C. `O=C(Nc1ccccc1Cl)Nc1ccc(-c2ccc(F)cc2)cc1-c1nnn[nH]1` [Compound 3-33, N-(2-Chloro-phenyl)-N′-[4′-fluoro-3-(1H-tetrazol-5-yl)-biphenyl-4-yl]-urea]: the melting point is 255 to 257 °C. `COc1ccc(-c2ccc(NC(=O)Nc3cc(Cl)cc(Cl)c3)c(-c3nnn[nH]3)c2)cc1` [Compound 3-34, N-(3,5-Dichloro-phenyl)-N′-[4′-methoxy-3-(1H-tetrazol-5-yl)-biphenyl-4-yl]-urea] showed a melting point of 200 to 201 °C.

Compound `O=C(Nc1cc(F)cc(F)c1)Nc1ccc(-c2ccc(OC(F)(F)F)cc2)cc1-c1nnn[nH]1` [Compound 3-35, N-(3,5-Difluoro-phenyl)-N′-[3-(1H-tetrazol-5-yl)-4′-trifluoromethoxy-biphenyl-4-yl]-urea] gave a melting point of 238 to 241 °C. In the case of `O=C(Nc1cc(Cl)cc(Cl)c1)Nc1ccc(-c2ccc(OC(F)(F)F)cc2)cc1-c1nnn[nH]1` [Compound 3-36, N-(3,5-Dichloro-phenyl)-N′-[3-(1H-tetrazol-5-yl)-4′-trifluoromethoxy-biphenyl-4-yl]-urea], the melting point lay within 224 to 225 °C.
